Reference: ChEMBL document CHEMBL1145280, “Control of hepatitis C: a medicinal chemistry perspective” (J Med Chem, 2005)
pIC50: −log10 of the molar value. Blank lines part the entries; values can stand above or below the compound they belong to. Non-standard residues stand in square brackets, D forms with d. Residues, ends and D or L forms follow the SMILES beside them. *: point of attachment. Dip = N[C@H](C(=O)O)C(c1ccccc1)c1ccccc1; Hyp = O=C(O)[C@@H]1C[C@@H](O)CN1; Tic = O=C(O)[C@@H]1Cc2ccccc2CN1; Cha = N[C@@H](CC1CCCCC1)C(=O)O; Nle = CCCC[C@H](N)C(=O)O; Bn = c1ccc(C*)cc1

How the values were obtained:
[1] = target: T1, NS3 (Hepatitis C virus, UniProt A3EZJ3); assay: Inhibitory concentration against hepatitis C virus NS3 protease; design: species or system Hepacivirus hominis; conditions: for pIC50: read-out: IC50
[2] = target: T1, NS3; assay: Inhibitory concentration against hepatitis C virus helicase; design: species or system Hepacivirus hominis
[3] = target: Genome polyprotein (Hepatitis C virus genotype 1a (isolate 1) (HCV), UniProt P26664); assay: Inhibitory concentration against hepatitis C virus polymerase; design: species or system Hepacivirus hominis
[4] = test system: Internal ribosome entry site (IRES); assay: Inhibitory concentration against hepatitis C virus internal ribosomal entry site; type: nucleic-acid assay, Hepacivirus hominis

T1 sequence (A3EZJ3 whole entry): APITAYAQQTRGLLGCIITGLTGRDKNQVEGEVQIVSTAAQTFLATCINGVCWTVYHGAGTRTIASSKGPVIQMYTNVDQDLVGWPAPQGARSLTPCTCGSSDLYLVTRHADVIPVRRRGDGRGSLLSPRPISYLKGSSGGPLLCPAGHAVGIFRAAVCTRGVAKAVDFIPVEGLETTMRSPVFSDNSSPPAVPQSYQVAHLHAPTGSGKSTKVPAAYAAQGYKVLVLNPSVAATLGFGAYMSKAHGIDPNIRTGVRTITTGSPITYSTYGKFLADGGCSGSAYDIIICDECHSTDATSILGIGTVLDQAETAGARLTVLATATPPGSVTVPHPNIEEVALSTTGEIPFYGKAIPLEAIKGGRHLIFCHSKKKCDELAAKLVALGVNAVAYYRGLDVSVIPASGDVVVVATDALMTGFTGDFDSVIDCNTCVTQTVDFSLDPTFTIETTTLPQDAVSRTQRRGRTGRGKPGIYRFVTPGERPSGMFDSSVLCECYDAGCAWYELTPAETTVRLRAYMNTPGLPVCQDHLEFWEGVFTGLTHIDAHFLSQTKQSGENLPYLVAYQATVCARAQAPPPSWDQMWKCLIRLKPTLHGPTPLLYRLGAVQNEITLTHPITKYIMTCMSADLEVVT
Sequence of Genome polyprotein (P26664 2421-3011 limits assumed): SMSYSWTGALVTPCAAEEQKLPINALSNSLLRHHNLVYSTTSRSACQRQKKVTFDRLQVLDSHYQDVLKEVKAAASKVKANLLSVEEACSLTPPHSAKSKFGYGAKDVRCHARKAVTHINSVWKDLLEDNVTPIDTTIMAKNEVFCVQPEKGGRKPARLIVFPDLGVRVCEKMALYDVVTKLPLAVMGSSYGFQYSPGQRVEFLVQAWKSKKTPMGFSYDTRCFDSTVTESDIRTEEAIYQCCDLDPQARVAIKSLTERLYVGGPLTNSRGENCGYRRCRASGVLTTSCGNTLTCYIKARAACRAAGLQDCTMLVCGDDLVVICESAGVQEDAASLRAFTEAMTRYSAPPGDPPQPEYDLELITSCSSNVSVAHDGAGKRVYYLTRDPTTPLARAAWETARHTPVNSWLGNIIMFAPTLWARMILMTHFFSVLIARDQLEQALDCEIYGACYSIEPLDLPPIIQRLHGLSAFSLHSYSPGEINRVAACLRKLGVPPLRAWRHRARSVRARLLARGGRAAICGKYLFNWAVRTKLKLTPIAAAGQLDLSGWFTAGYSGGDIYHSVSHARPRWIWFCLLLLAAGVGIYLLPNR

IC50 [1]: 6.4 µg/mL
Compound: CC(=O)OCCC/C(=C1/SC(=S)N(CC(=O)O)C1=O)c1ccc(Br)cc1

pIC50 [1]: 7.48
Compound: CC(=O)N[C@@H](CC(=O)O)C(=O)N[C@@H](CCC(=O)O)C(=O)N[C@@H](CC1CCCCC1)C(=O)N[C@H](C(=O)N1C[C@H](OCc2ccccc2)C[C@H]1C(=O)N[C@@H](CS)C(=O)O)C(C)C (Ac-DE[Cha]V[Hyp](Bn)C-OH)

pIC50 [2]: 7.00
Compound: COC(=O)[C@@H]1c2cc3c(c(O)c2[C@@H](O[C@@H]2O[C@@H](C)[C@H](OC)[C@@](C)(OC)[C@H]2OC)C[C@]1(C)O)C(=O)c1c(O)cc2c(c1C3=O)O[C@@H]1O[C@@]2(C)[C@H](O)[C@@H](N(C)C)[C@@H]1O [NOGALAMYCIN]

pIC50 [1]: 5.89
Compound: CC[C@H](C)[C@H](NC(=O)[C@@H](NC(=O)[C@H](CCC(=O)O)NC(=O)[C@H](CC(=O)O)NC(C)=O)C(c1ccccc1)c1ccccc1)C(=O)N[C@@H](CC1CCCCC1)C(=O)N[C@@H](CS)C(=O)N1CCC[C@H]1C(=O)N[C@@H](CC1CCCCC1)C(=O)N[C@@H](CC(=O)O)C(=O)N[C@H](C(N)=O)C(C)C (Ac-DE[Dip]I[Cha]CP[Cha]DV-NH2)

pIC50 [1]: 6.00
Compound: CC[C@H](C)[C@H](NC(=O)OC(C)(C)C)C(=O)N[C@@H](CC(C)C)C(=O)N[C@@H](CC(F)F)C(=O)C(=O)O

pIC50 [3]: 6.46
Compound: N#Cc1ccc(Br)cc1Oc1ccccc1C(=O)CC(=O)C(=O)O

pIC50 [2]: 5.15
Compound: c1cc(CN2CCC(C3=NC4CCCCC4N3)CC2)ccc1CN1CCC(C2=NC3CCCCC3N2)CC1 (stereo not given)

pIC50 [4]: < 5.00
Compound: Nc1ccc2c(c1)NC(=O)c1cc(N)cnc1O2

pIC50 [4]: < 5.00
Compound: Nc1ccc2c(c1)Oc1ncc(N)cc1C(=O)N2

pIC50 [4]: 7.70
Compound: Cc1cc2nc3ccc(N(C)C)cc3nc2cc1N

pIC50 [1]: 7.89
Compound: C=C[C@H]1C[C@]1(NC(=O)[C@@H]1C[C@@H](Oc2cc(-c3ccccc3)nc3ccccc23)CN1C(=O)[C@@H](NC(=O)[C@@H](NC(C)=O)C1CCCCC1)C(C)C)C(=O)O

pIC50 [2]: < 6.00
Compound: CC(=O)O[C@H]1C(=O)[C@@]2(C)[C@H]([C@H](OC(=O)c3ccccc3)[C@]3(O)C[C@H](OC(=O)[C@H](O)[C@@H](NC(=O)c4ccccc4)c4ccccc4)C(C)=C1C3(C)C)[C@]1(OC(C)=O)CO[C@@H]1C[C@@H]2O [PACLITAXEL]

pIC50 [3]: 7.00
Compound: O=C(NCc1ccccc1Cl)Nc1ccsc1-c1nc(O)c(O)c(C(=O)O)n1

pIC50 [2]: 5.26
Compound: Nc1nc(=O)c2c(ncn2COCCOCc2ccccc2)c(=O)[nH]1

pIC50 [1]: 7.00
Compound: CCCC[C@H](NC(=O)[C@@H]1Cc2ccccc2CN1C(=O)[C@H](CS)NC(=O)[C@H](CC1CCCCC1)NC(=O)[C@@H](NC(=O)[C@@H](NC(=O)[C@H](CCC(=O)O)NC(=O)[C@H](CC(=O)O)NC(C)=O)C(c1ccccc1)c1ccccc1)[C@@H](C)CC)C(=O)N[C@@H](CO)C(=O)N[C@@H](Cc1ccc(O)cc1)C(N)=O (Ac-DE[Dip]I[Cha]C[Tic][Nle]SY-NH2)

pIC50 [4]: 5.66
Compound: CN(C)c1ccc(Nc2ccc(N(C)C)cc2)cc1

pIC50 [1]: 5.24
Compound: CCCCCCCCCCCCCNC(=O)c1c(O)cc(O)c([N+](=O)[O-])c1O

pIC50 [3]: 6.10
Compound: CC(C)CCn1c(=O)c(C2=NS(=O)(=O)c3ccccc3N2)c(O)c2ccccc21

pIC50 [2]: 6.12
Compound: COc1cccc2c1C(=O)c1c(O)c3c(c(O)c1C2=O)C[C@@](O)(C(=O)CO)C[C@@H]3O[C@H]1C[C@H](N)[C@@H](O)[C@H](C)O1 [EPIRUBICIN]

pIC50 [1]: 5.15
Compound: CCCC(=O)c1cc2c(c(O)c1C)C(=O)C(=O)c1c(O)cccc1-2

pIC50 [3]: 7.00
Compound: N#Cc1ccc(Br)cc1-c1cccc(C(=O)CC(=O)C(=O)O)c1

pIC50 [3]: > 6.00
Compound: O=C(N[C@@H](Cc1c[nH]c2ccccc12)C(=O)O)c1ccc2c(c1)nc(-c1ccoc1)n2C1CCCCC1

pIC50 [3]: 5.24
Compound: O=C(O)C(=O)CC(=O)c1ccccc1

pIC50 [1]: 4.15
Compound: Ac-DDIVPC-OH

pIC50 [1]: 5.49
Compound: O=C1NC(=S)S/C1=C/c1cc([N+](=O)[O-])ccc1Sc1ccc(Cl)cc1

pIC50 [2]: 4.92
Compound: Nc1nc(=O)c2c(ncn2C2O[C@H](CO)C(O)C2O)c(=O)[nH]1 (single isomer, unassigned)

pIC50 [3]: 4.92
Compound: COc1ccc(CCNC(=O)c2ccc3c(c2)nc(-c2ccccn2)n3C2CCCCC2)cc1OC

pIC50 [1]: 4.82
Compound: CC(C)C[C@H](NC(=O)[C@H](CC(=O)O)NC(=O)[C@H](CC1CCCCC1)NC(=O)[C@@H]1CCCC[C@H]1C(=O)O)C(N)=O

Further lines, the compound ahead of its results:

Compound: CCCC[C@H](NC(=O)[C@@H]1CCCN1C(=O)[C@H](CS)NC(=O)[C@H](CC1CCCCC1)NC(=O)[C@@H](NC(=O)[C@@H](NC(=O)[C@H](CCC(=O)O)NC(=O)[C@H](CC(=O)O)NC(C)=O)C(c1ccccc1)c1ccccc1)[C@@H](C)CC)C(=O)N[C@@H](CC(=O)O)C(=O)N[C@H](C(N)=O)C(C)C (Ac-DE[Dip]I[Cha]CP[Nle]DV-NH2)
pIC50 [1]: 5.74

Compound: O=C1C=C2C(=CCOC2OC(=O)c2cccc(Br)c2)O1 (stereo not given)
pIC50 [1]: 4.90

Compound: N#Cc1c(Cl)cc(Cl)cc1-c1cccc(C(=O)CC(=O)C(=O)O)c1
pIC50 [3]: 7.35

Compound: CC(=O)N[C@@H](CC(=O)O)C(=O)N[C@@H](CCC(=O)O)C(=O)N[C@@H](CC1CCCCC1)C(=O)N[C@H](C(=O)N1C[C@@H](OCc2ccccc2)C[C@H]1C(=O)NC1(C(=O)O)CC1)C(C)C
pIC50 [1]: 7.29

Compound: Nc1ccc2[nH]c3ccc(N)cc3c2c1
pIC50 [4]: < 5.00

Compound: OC[C@H]1O[C@@H](n2nnc3cc(Cl)c(Cl)cc32)[C@H](O)[C@@H]1O
pIC50 [2]: 5.82

Compound: CC(=O)OC1OCC=C2OC(=O)C=C21 (stereo not given)
pIC50 [1]: 5.14

Compound: CCCC[C@H](NC(=O)[C@@H]1Cc2ccccc2CN1C(=O)[C@H](CS)NC(=O)[C@H](CC(C)C)NC(=O)[C@@H](NC(=O)[C@@H](NC(=O)[C@H](CCC(=O)O)NC(=O)[C@H](CCC(=O)O)NC(C)=O)C(C)C)C(C)C)C(=O)N[C@@H](CO)C(=O)N[C@@H](Cc1ccc(O)cc1)C(N)=O (Ac-EEVVLC[Tic][Nle]SY-NH2)
pIC50 [1]: 6.00

Compound: N=c1nc(N)c2ncn([C@H]3O[C@@H](COP(=O)(O)OP(=O)(O)OP(=O)(O)O)[C@H](O)[C@@H]3O)c2c(N)n1
pIC50 [2]: 6.26

Compound: O=C(O)c1ccc2c(c1)nc(-c1ccccn1)n2C1CCCCC1
pIC50 [3]: 5.37

Compound: O=C1NNC(=O)c2c(ncn2[C@H]2O[C@@H](COP(=O)(O)OP(=O)(O)OP(=O)(O)O)[C@H](O)[C@@H]2O)N1
pIC50 [2]: 5.82

Compound: NC(=O)c1ncn([C@@H]2O[C@H](CO[P@@](=O)(O)O[P@](=O)(O)OP(=O)(O)O)[C@@H](O)[C@H]2O)n1 [RTP]
pIC50 [2]: 3.74

Compound: Brc1c(Br)c(Br)c2[nH]nnc2c1Br [TETRABROMOBENZOTRIAZOLE]
pIC50 [2]: 4.70

Compound: O=C(Nc1ccc(Oc2ccc(Cl)c3ccccc23)c(Cl)c1)c1cc(Cl)ccc1NS(=O)(=O)c1ccc(Cl)cc1
pIC50 [1]: 5.19

Compound: O=C(O)c1ccc2c(c1)nc(-c1ccc(OCc3cc(C(=O)N4CCC(O)CC4)ccc3-c3ccc(Cl)cc3)cc1F)n2C1CCCCC1
pIC50 [3]: > 5.00

Compound: O=C(Nc1cc(Cl)ccc1Oc1ccc2ccccc2c1Cl)c1cc(Cl)cc(Br)c1O
pIC50 [1]: 5.21

Compound: NC(=O)c1ncn([C@@H]2O[C@H](COP(=O)(O)OP(=O)(O)O)[C@@H](O)[C@H]2O)n1
pIC50 [2]: 3.60

Compound: N#Cc1c(Cl)cccc1-c1cccc(C(=O)CC(=O)C(=O)O)c1
pIC50 [3]: 6.96

Compound: COc1ccc2c(O[C@@H]3C[C@H]4C(=O)N[C@]5(C(=O)O)C[C@H]5/C=C\CCCCC[C@H](NC(=O)OC5CCCC5)C(=O)N4C3)cc(-c3csc(NC(C)C)n3)nc2c1 [CILUPREVIR]
pIC50 [1]: 5.52

Compound: O=C1C=C2C(=CCOC2O)O1 (stereo not given) [PATULIN]
pIC50 [1]: 5.42

Compound: CC[C@H](C)[C@H](NC(=O)OCc1ccccc1)C(=O)N[C@@H](CC(C)C)C(=O)N[C@@H](CC(F)F)C(=O)C(=O)O
pIC50 [1]: 5.77

Compound: O=C(CCCCC(=O)Nc1ccc(-c2nc3ccccc3[nH]2)cc1)Nc1ccc(-c2nc3ccccc3[nH]2)cc1
pIC50 [2]: 6.15
